Reference: ChEMBL document CHEMBL1201862, “PubChem BioAssay data set” (2004)
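Step 1: Grow cells in 96-well plates. Step 2: Expose to compound for 48 hours at 5 concentrations. Step 3: Interpolate endpoints linearly; if unreached, use highest concentration. The concentration for 50% growth inhibition is given as GI50.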 The source made the active and inactive calls. Cut-off read from the data, not from the text of the source: active = GI50 up to about 1.1 µM and inactive = higher.

Columns and labels:
Assay in all cases: growth of human tumour cells (NCI), 48 h
NCI-H226 = system: NCI-H226
U-251 = system: U-251
SK-MEL-5 = system: SK-MEL-5
OVCAR-4 = system: OVCAR-4
HCC 2998 = system: HCC 2998
Hs-578T = system: Hs-578T
SW-620 = system: SW-620
MDA-MB-231 = system: MDA-MB-231
SR = system: SR
Malme-3M = system: Malme-3M
CCRF-CEM = system: CCRF-CEM
OVCAR-5 = system: OVCAR-5
RXF 393 = system: RXF 393
HL-60 = system: HL-60
NCI-H23 = system: NCI-H23
SN12C = system: SN12C
HCT-15 = system: HCT-15
UACC-62 = system: UACC-62
SNB-75 = system: SNB-75
SK-MEL-2 = system: SK-MEL-2

SMILES | GI50 (NCI-H226) | GI50 (U-251) | GI50 (SK-MEL-5) | GI50 (OVCAR-4) | GI50 (HCC 2998) | GI50 (Hs-578T) | GI50 (SW-620) | GI50 (MDA-MB-231) | GI50 (SR) | GI50 (Malme-3M) | GI50 (CCRF-CEM) | GI50 (OVCAR-5) | GI50 (RXF 393) | GI50 (HL-60) | GI50 (NCI-H23) | GI50 (SN12C) | GI50 (HCT-15) [µM] | GI50 (UACC-62) | GI50 (SNB-75) | GI50 (SK-MEL-2)
Nc1nc(Cl)c(Cl)c(NCC2(O)CCC2)n1 | 23.6 µM (inactive) | 92.7 µM (inactive) | 18.8 µM (inactive) | 19 µM (inactive) | 88.3 µM (inactive) | 51.3 µM (inactive) | > 100 µM (inactive) | 74.1 µM (inactive) | 47.5 µM (inactive) | 62.7 µM (inactive) | > 100 µM (inactive) | > 100 µM (inactive) | 38.4 µM (inactive) | 44 µM (inactive) | 38.9 µM (inactive) | > 100 µM (inactive) | 38.9 | 36.2 µM (inactive) | > 100 µM (inactive) | > 100 µM (inactive)
CSc1nc2ccccc2c(=O)n1-c1cccc(C)c1 | > 100 µM (inactive) | > 100 µM (inactive) | 21.9 µM (inactive) | 86.7 µM (inactive) | 15.6 µM (inactive) | 47.4 µM (inactive) | 31.9 µM (inactive) | > 100 µM (inactive) | 15.7 µM (inactive) | > 100 µM (inactive) | 32.6 µM (inactive) | > 100 µM (inactive) | 81.8 µM (inactive) | 2.58 µM (inactive) | > 100 µM (inactive) | > 100 µM (inactive) | 36.2 | 71 µM (inactive) | 32 µM (inactive) | 70.5 µM (inactive)
C1CN(c2nnc(N3CCC3)nn2)C1 | > 96.6 µM (inactive) | > 71.8 µM (inactive) | 25.2 µM (inactive) | 40.9 µM (inactive) | > 100 µM (inactive) | 39 µM (inactive) | 32.3 µM (inactive) | > 42.6 µM (inactive) | > 100 µM (inactive) | 44.4 µM (inactive) | > 100 µM (inactive) | 41.2 µM (inactive) | > 63.5 µM (inactive) | > 100 µM (inactive) | 30.6 µM (inactive) | 29 µM (inactive) | > 100 | 19.3 µM (inactive) | 21 µM (inactive) | 44.1 µM (inactive)
N=C1/C(=C/c2ccco2)C(=O)N=C2SC=NN12 | > 100 µM (inactive) | > 100 µM (inactive) | > 100 µM (inactive) | > 100 µM (inactive) | > 100 µM (inactive) | > 100 µM (inactive) | > 100 µM (inactive) | > 100 µM (inactive) | > 100 µM (inactive) | > 100 µM (inactive) | > 100 µM (inactive) | > 100 µM (inactive) | > 100 µM (inactive) | > 100 µM (inactive) | > 100 µM (inactive) | > 100 µM (inactive) | > 100 | > 100 µM (inactive) | 99.1 µM (inactive) | > 100 µM (inactive)
C=C1c2nc3ccccc3n2C=C(c2ccc(C)cc2)N1c1ccc(C)cc1 | 7.08 µM (inactive) | 86.3 µM (inactive) | 19.8 µM (inactive) | 69.5 µM (inactive) | 22.5 µM (inactive) | > 100 µM (inactive) | 36.8 µM (inactive) | > 83.4 µM (inactive) | 11.5 µM (inactive) | > 63.2 µM (inactive) | 33 µM (inactive) | > 100 µM (inactive) | 25.9 µM (inactive) | 10.5 µM (inactive) | > 59.6 µM (inactive) | > 100 µM (inactive) | 23.8 | > 83.8 µM (inactive) | > 100 µM (inactive) | 47.5 µM (inactive)
